{"source": "patent US20150193597A1", "about": "“PHARMACEUTICAL PRODUCT AND COMMUNICATION TOOL” (priority 2012, published 2015)", "key": {"[1]": {"conditions": "test period when patient was only taking Metformin (two months)", "method": "Follow-up variables: HbA1c • c. Period of time using the combination product: Three months. • d. Period of time using only the pharmaceutical, i.e. no combination product, prior to the period of using the combination product: Two months\nMetformin was the following: • Adherence to Metformin: • The patient was asked to answer a question whether or not he/she had been adherent to Metformin, and which dose the patient took; “I have taken my Metformin today with the daily dose of 500 mg/1000 mg/1500 mg/2000 mg/2500 mg or 3000 mg”. • Physical activity: • The patient was asked to continuously answer a question like the following: “I have been exercising the following number of minutes today: [number]”. • Weight/BMI: • The patient was asked to answer a question regarding his/her actual weight. • Blood glucose: • The patient was asked to register his/her measured blood glucose, when he/she had measured it. It was possible for the patient to change or update already registered answers. • HbA1c: • The patient was asked to register his/her HbA1c after it had been measured at a clinic. • A possible adverse event for Metformin: • “Have you experienced unexpected loss of weight, severe nausea or vomiting (malaise), uncontrolled sudden pain when breathing or abdominal? […] Extremely much versus Nothing at all” according to a VAS structure"}, "[2]": {"conditions": "test period when patient only was taking Zoloft (two months)", "from_the_text": "Test objectives; improve cardiovascular and diabetes symptoms through an increased well-being from improved adherence to Zoloft, initiating primarily an improved level of physical activity • b. Follow-up variables: Weight and HbA1c • c. Period of time using the combination product: Five months. • d. Period of time using only the pharmaceutical, i.e. no combination product, prior to the period of using the combination product: Two months • e. Period of time using only the software application, after the period of using the combination product: Two weeks\nThe individual goal was set-up by the patient by answering the following question: “Give your own personal goal for the physical activity in number of minutes for one week”. • The patient was then asked to continuously answer a question like the following: “I have been exercising the following number of minutes today: [number]”. • Weight/BMI: • The patient was asked to answer a question regarding his/her actual weight. • Depression and Anxiety, respectively: • The patient was asked to register the actual level of perceived depression respectively actual level of perceived anxiety at predefined occasions every second day. It was also possible for the patient to answer the question when he/she wanted. […]"}, "[3]": {"experiment": "Study 3: Lyrica combination product in generalized anxiety disorder (GAD), perceived symptoms, side effects, quality of life, adherence", "conditions": "Patient 3 (only PP); for Anxiety Daytime / Anxiety Evening/Night / Fatigue / Muscle tension Daytime / Muscle tension Evening/Night: average VAS 0-10; for Dizziness / Dry month / Nausea: frequency of Yes answers; for Quality of Life: average VAS 0-10, 10 = Extremely good", "protocol": "Three patients participated in the study, where two of them were given the combination product, A+B, and the third was given the PP, A. All three patients were using an evaluation tool in order to capture the continuous data concerning their current health situation. Prior to entering the study none of the patients had used either the PP or the CPP.\nLength of study: 2 months.\nThe two patients using the combination product were evaluated against the one patient using only the PP and being treated according to ordinary health care in Sweden.\nDue to the specific and profound study objectives, detailed outcome and behavior during the study period from the patients were evaluated against each other. The measurements of the patient outcomes were evaluated for each patient in different time phases during the treatment period.\nIn order to measure the appropriate patient outcome, the patients were continuously followed-up. […] The used QFM for the patients in the intervention group, patient 1 and 2: • 1. Set of questions. • 2. Set of functions generating individual and patient specific feedback information. • 3. Feedback based upon the individual patient specific feedback information.\nThe used set of questions for the patient in the control group, patient 3: • 1. Set of questions similar to the intervention group in order to capture patient reported outcome data • 2. No set of functions. • 3. No feedback information or feedback.\nThe measured variables (see table 19) were symptom and side effect levels which were perceived estimates by each patient at every measure point. The change in levels of symptoms and side effects between different measured times were used for comparisons. Symptoms and side effects are many times closely related in GAD. In this study anxiety, fatigue, and muscle tension were defined as symptoms while dizziness, nausea, and dry mouth were considered as side effects. This study focused on the overall clinical effect and patient safety aspects therefore it was not crucial to the results if a measured variable could have been defined differently."}}}
{"smiles": "CN(C)C(=N)N=C(N)N", "note": "[Metformin]", "values": [{"measurement": "increase of HbA1c", "setting": "[1]", "result": 7, "unit": "%"}]}
{"smiles": "CN[C@H]1CC[C@@H](c2ccc(Cl)c(Cl)c2)c2ccccc21", "note": "[Zoloft, Sertralin]", "values": [{"measurement": "HbA1c course", "setting": "[2]", "result": "remained stable or slightly increased"}, {"measurement": "weight gain", "setting": "[2]", "result": "1-2%"}]}
{"smiles": "CC(C)C[C@H](CN)CC(=O)O", "note": "[A, pregabalin]", "values": [{"measurement": "Anxiety Daytime", "setting": "[3]; 1st phase", "result": 3.5}, {"measurement": "Anxiety Evening/Night", "setting": "[3]; 1st phase", "result": 2.8}, {"measurement": "Fatigue", "setting": "[3]; 1st phase", "result": 5.4}, {"measurement": "Muscle tension Daytime", "setting": "[3]; 1st phase", "result": 6.3}, {"measurement": "Muscle tension Evening/Night", "setting": "[3]; 1st phase", "result": 3.9}, {"measurement": "Dizziness", "setting": "[3]; 1st phase", "result": 13, "unit": "%"}, {"measurement": "Dry month", "setting": "[3]; 1st phase", "result": 0, "unit": "%"}, {"measurement": "Nausea", "setting": "[3]; 1st phase", "result": 38, "unit": "%"}, {"measurement": "Anxiety Daytime", "setting": "[3]; 2nd phase", "result": 3.0}, {"measurement": "Anxiety Evening/Night", "setting": "[3]; 2nd phase", "result": 2.9}, {"measurement": "Fatigue", "setting": "[3]; 2nd phase", "result": 5.0}, {"measurement": "Muscle tension Daytime", "setting": "[3]; 2nd phase", "result": 7.8}, {"measurement": "Muscle tension Evening/Night", "setting": "[3]; 2nd phase", "result": 7.4}, {"measurement": "Dizziness", "setting": "[3]; 2nd phase", "result": 0, "unit": "%"}, {"measurement": "Dry month", "setting": "[3]; 2nd phase", "result": 0, "unit": "%"}, {"measurement": "Nausea", "setting": "[3]; 2nd phase", "result": 11, "unit": "%"}, {"measurement": "Anxiety Daytime, Change", "setting": "[3]; 2nd vs 1st phase", "result": "−0.5"}, {"measurement": "Anxiety Evening/Night, Change", "setting": "[3]; 2nd vs 1st phase", "result": 0.1}, {"measurement": "Dizziness, Change", "setting": "[3]; 2nd vs 1st phase", "result": "−13", "unit": "p.p."}, {"measurement": "Dry month, Change", "setting": "[3]; 2nd vs 1st phase", "result": 0, "unit": "p.p."}, {"measurement": "Fatigue, Change", "setting": "[3]; 2nd vs 1st phase", "result": "−0.4"}, {"measurement": "Muscle tension Daytime, Change", "setting": "[3]; 2nd vs 1st phase", "result": 1.5}, {"measurement": "Muscle tension Evening/Night, Change", "setting": "[3]; 2nd vs 1st phase", "result": 5.5}, {"measurement": "Nausea, Change", "setting": "[3]; 2nd vs 1st phase", "result": "−27", "unit": "p.p."}, {"measurement": "Anxiety Daytime", "setting": "[3]; 3rd phase", "result": 1.9}, {"measurement": "Anxiety Evening/Night", "setting": "[3]; 3rd phase", "result": 1.8}, {"measurement": "Fatigue", "setting": "[3]; 3rd phase", "result": 5.1}, {"measurement": "Muscle tension Daytime", "setting": "[3]; 3rd phase", "result": 7.1}, {"measurement": "Muscle tension Evening/Night", "setting": "[3]; 3rd phase", "result": 7.2}, {"measurement": "Dizziness", "setting": "[3]; 3rd phase", "result": 0, "unit": "%"}, {"measurement": "Dry month", "setting": "[3]; 3rd phase", "result": 0, "unit": "%"}, {"measurement": "Nausea", "setting": "[3]; 3rd phase", "result": 0, "unit": "%"}, {"measurement": "Anxiety Daytime, Change", "setting": "[3]; 3rd vs 2nd phase", "result": "−1.1"}, {"measurement": "Anxiety Evening/Night, Change", "setting": "[3]; 3rd vs 2nd phase", "result": "−1.1"}, {"measurement": "Dizziness, Change", "setting": "[3]; 3rd vs 2nd phase", "result": 0, "unit": "p.p."}, {"measurement": "Dry month, Change", "setting": "[3]; 3rd vs 2nd phase", "result": 0, "unit": "p.p."}, {"measurement": "Fatigue, Change", "setting": "[3]; 3rd vs 2nd phase", "result": 0.1}, {"measurement": "Muscle tension Daytime, Change", "setting": "[3]; 3rd vs 2nd phase", "result": "−0.7"}, {"measurement": "Muscle tension Evening/Night, Change", "setting": "[3]; 3rd vs 2nd phase", "result": "−0.3"}, {"measurement": "Nausea, Change", "setting": "[3]; 3rd vs 2nd phase", "result": "−11", "unit": "p.p."}, {"measurement": "Anxiety Daytime", "setting": "[3]; End period", "result": 2.0}, {"measurement": "Anxiety Evening/Night", "setting": "[3]; End period", "result": 2.5}, {"measurement": "Fatigue", "setting": "[3]; End period", "result": 4.8}, {"measurement": "Muscle tension Daytime", "setting": "[3]; End period", "result": 7.3}, {"measurement": "Muscle tension Evening/Night", "setting": "[3]; End period", "result": 7.4}, {"measurement": "Quality of Life", "setting": "[3]; End period", "result": 2.5}, {"measurement": "Dizziness", "setting": "[3]; End period", "result": 0, "unit": "%"}, {"measurement": "Dry month", "setting": "[3]; End period", "result": 0, "unit": "%"}, {"measurement": "Nausea", "setting": "[3]; End period", "result": 0, "unit": "%"}, {"measurement": "Anxiety Daytime, Change", "setting": "[3]; End vs Start period", "result": "−1.8"}, {"measurement": "Anxiety Evening/Night, Change", "setting": "[3]; End vs Start period", "result": 0.1}, {"measurement": "Dizziness, Change", "setting": "[3]; End vs Start period", "result": "−13", "unit": "p.p."}, {"measurement": "Dry month, Change", "setting": "[3]; End vs Start period", "result": 0, "unit": "p.p."}, {"measurement": "Fatigue, Change", "setting": "[3]; End vs Start period", "result": "−0.8"}, {"measurement": "Muscle tension Daytime, Change", "setting": "[3]; End vs Start period", "result": 1.4}, {"measurement": "Muscle tension Evening/Night, Change", "setting": "[3]; End vs Start period", "result": 4.0}, {"measurement": "Nausea, Change", "setting": "[3]; End vs Start period", "result": "−38", "unit": "p.p."}, {"measurement": "Quality of Life, Change", "setting": "[3]; End vs Start period", "result": 0.5}, {"measurement": "Anxiety Daytime", "setting": "[3]; Start period", "result": 3.8}, {"measurement": "Anxiety Evening/Night", "setting": "[3]; Start period", "result": 2.4}, {"measurement": "Fatigue", "setting": "[3]; Start period", "result": 5.6}, {"measurement": "Muscle tension Daytime", "setting": "[3]; Start period", "result": 5.9}, {"measurement": "Muscle tension Evening/Night", "setting": "[3]; Start period", "result": 3.4}, {"measurement": "Quality of Life", "setting": "[3]; Start period", "result": 2.0}, {"measurement": "Dizziness", "setting": "[3]; Start period", "result": 13, "unit": "%"}, {"measurement": "Dry month", "setting": "[3]; Start period", "result": 0, "unit": "%"}, {"measurement": "Nausea", "setting": "[3]; Start period", "result": 38, "unit": "%"}]}
